Patent US20260000685A1, “PHARMACEUTICAL COMPOSITION FOR PREVENTING OR TREATING DEGENERATIVE BRAIN DISEASES, COMPRISING CANNABINOIDS AS ACTIVE INGREDIENT, AND USES THEREOF” (NEOCANNBIO CO., LTD., priority 2022, published 2026)

Columns and labels:
amyloid beta (Aβ) = experiment: Western blotting of Aβ expression in Aβ1-42-treated primary neuronal cells; format: cell-based, ICR mice; details: with Aβ1-42 (5 μM), 24 hours; compared to Aβ1-42 alone; FIG. 5
Experimental: Specifically, primary neuronal cells derived from ICR mice were cultured for 6 days, and then treated with CBDA, THCA, THC, or CBN compounds while treating with Aβ1-42 (5 μM), and treated together for 24 hours. Next, Western blotting was conducted to confirm the expression levels of APP (Amyloid Precursor Protein), polymeric Aβ, and oligomeric AB in the cells.
(§1) To conduct Western blotting, tissues were homogenized in radioimmunoprecipitation assay buffer (Cell Signaling) to acquire tissue lysates. Tissue protein concentrations were determined using the Bio-Rad protein assay (Bio-Rad, Hercules, CA, USA), and Western blot analysis was conducted using 80-120 μg of protein. Next, the Western blotting samples prepared using the proteins were separated using 12% SDS-PAGE and transferred to a polyvinylidene fluoride membrane (PVDF) (Merck Millipore, Burlington, MA, USA; 0.4 μm). The PVDF was blocked with tris-buffered saline including 5% bovine serum albumin and Tween-20, and incubated with primary antibodies overnight at 4° C. After primary antibody incubation, the samples were incubated with HRP-conjugated secondary antibody (Sigma; 1:5000) for 1 hour at room temperature, and immunodetection was conducted using an enhanced chemiluminescence detection kit (GE Healthcare, Chicago, IL, USA).

primary neuronal cells = experiment: Inhibition of Aβ1-42-induced neuron apoptosis (MTS cell viability); format: cell-based, ICR mice; details: different concentrations with Aβ1-42 (5 μM), 24 hours; compared to control treated with Aβ1-42 alone; FIG. 2
Experimental: Specifically, primary neuronal cells derived from ICR mice were seeded in 96-wells at 5×10^5 cells per well and cultured for 6 days. Afterwards, the six compounds of Example 1 above were treated at different concentrations and Aβ1-42 (5 μM) was treated to induce neuron apoptosis, and the cells were treated together for 24 hours. Afterwards, a MTS solution was added to the medium and incubated for 2 hours. Cytotoxicity (cell viability) was measured using a microplate spectrophotometer (Bio-Tek Power Wave XS, Winooski, VT, USA), and absorbance was measured at 490 nm.
Next, the neuron apoptosis inhibition efficacy for the same concentration of CBDA, CBD, THCA and THC was evaluated using the same method as above. Memantine, known as an Alzheimer's treatment, was used as a positive control group.

[1] = system: phosphorylated tau (p-Tau); experiment: Western blotting of Tau/p-Tau in Aβ1-42-treated primary neuronal cells; format: cell-based, ICR mice; details: with Aβ1-42 (5 μM), 24 hours; compared to Aβ1-42 alone; FIG. 7
Experimental: as §1
Specifically, primary neuronal cells derived from ICR mice were cultured for 6 days, and then treated with CBDA, THCA, THC, or CBN compounds while treating with Aβ1-42 (5 μM), and treated together for 24 hours. Next, to confirm the expression levels of Tau and phosphorylated Tau (p-Tau) in the cells, Western blotting was conducted using the method disclosed in Example 4 above.

[2] = system: primary cortical neuron cells; experiment: Intracellular calcium concentration in neuronal cells (fluo-4 AM fluorescence imaging); format: cell-based; details: CBDA (6.25 μM), THCA (12.5 μM), THC (12.5 μM) with Aβ1-42 (5 μM), 24 hours; compared to Aβ1-42 alone; FIG. 8 and 9
Experimental: Specifically, primary cortical neuron cells were seeded in 96-wells at 5×10^5 cells per well and cultured for 6 days. […] Next, to measure the concentration of calcium ions in neuronal cells by detecting Ca^2+ using fluorescence imaging, the cells were washed with PBS and treated with 10 μM Ca^2+ indicator fluo-4 AM (Thermo) for […]. The stained sections were washed with PBS, covered with Prolong Gold Antifide Reagent (Invitrogen, Carlsbad, CA, USA) including DAPI nuclear stain, and observed using a microscope (Carl Zeiss, Oberkochen, Germany). Fluo-4 AM fluorescence signal intensity was measured using the Image J analysis program (National Institute of Health, Bethesda, […], USA).

CCCCCc1cc(O)c2c(c1)OC(C)(C)c1ccc(C)cc1-2 [CBN, 6,6,9-Trimethyl-3-pentyl-benzo[c]chromen-1-ol] was tested, and the “expression level of AB” value (amyloid beta (Aβ)) was “significantly reduced”, the “cell survival rate level” value (primary neuronal cells) was “significantly increased” and the “phosphorylation level of p-Tau” value [1] was “not”.
In the case of CCCCCc1cc(O)c2c(c1)OC(C)(C)[C@@H]1CCC(C)=C[C@@H]21 [THC, (6aR, 10aR)-delta-9-Tetrahydrocannabinol], the “expression level of AB” value (amyloid beta (Aβ)) was “significantly reduced”, the “cell survival rate level” value (primary neuronal cells) was “significantly increased” and the “intracellular calcium ion concentration” value [2] was “significantly reduced”. For the same compound, the “expression level of p-Tau” value [1] was “significantly reduced” and the “phosphorylation level of p-Tau” value [1] was “significantly reduced”.
